Data: patent US6974574B2, “Methods of inducing an HIV specific response using a Vpr-specific epitope” (The General Hospital Corporation, priority 2001, dated 2005)
“And” between values parts separate entries of the source, which are not always exact repeats. Identical values can stand only once.

Key:
[1] = system: CD8+ T cells; assay: Flow cytometric detection of antigen-induced intracellular IFN-γ; assay type: cell-based, human; settings: subject AC-06
Procedure: CD8+ T cells were non-specifically expanded from PBMC over 10 days, using a bi-specific […]. Peptide-specific CD8+ T cell lines were subsequently isolated using a standard IFN-γ catching assay. After expansion 10-20×10^6 CD8+ T cells were incubated on 24-well-plates with 20 μM peptide and 1 ug/ml each of the mAbs anti-CD28 and anti-CD49d (Becton Dickinson) at 37° C., 5% CO2, for 6-8 hour. Cell were subsequently labeled with a bi-specific CD45/IFN-γ catching antibody and incubated for 45 min at 37° C., 5% CO2. After several washes, the IFN-γ producing cells were stained with a second IFN-γ-PE detection antibody and separated by anti-PE mAb labeled with magnetic beads (MACS, Miltenyi Biotech, Hamburg, Germany). The isolated cells were then expanded for 10 days using autologous irradiated feeders.
Intracellular cytokine staining assays were performed using known methods, e.g.,described by Pitcher et al., 1999, Nature Medicine 5:518 or Goulder et al, 2000, J. Exp. Med. 192:1819). […] Cells were then washed and analyzed on a FACSort Flowcytometer (Becton Dickinson Immunocytometry systems, San Jose, Calif.) using peridinin chlorophyl protein (PerCP), allophycocyanin (APC) and fluorescein isothiocyanate (FITC) as fluorescent parameters. […]

[2] = system: PBMC (CD8+ T cells) of HIV-1 infected individuals; assay: IFN-γ Elispot assay with PBMC and synthetic HIV-1 peptides; assay type: cell-based, human
Procedure: Peptides were added directly to the wells at a final concentration of 1×10^−5 molar. Cells were added to the wells at 50,000 to 100,000 cells per well. The plates were incubated at 37° C., 5% CO2 overnight (14-16 h) and then processed as described. IFN-γ producing cells were counted by direct visualization and are expressed as spot forming cells (SFC) per 10^6 cells. The number of specific IFN-γ secreting T-cells was calculated by subtracting the negative control value from the established SFC count. […] Responses ≧40 SFC per 10^6 input cells above background were considered positive. The positive control consisted of incubation of 100,000 PBMC with phytohaemagglutinin (PHA). […] Fine mapping of epitopes by Elispot assay was performed, using peptide truncations (e.g., as described in Altfield et al., 2000, J. Virol. 74:8541). 100,000 PBMC per well were incubated with concentrations from 10^−4 M to 10^−11 M of peptide overnight on the Elispot plate. All assays were run in duplicate. The optimal peptide was defined as the peptide that induced 50% maximal specific IFN-γ production of T-cells at the lowest peptide concentration.

[3] = system: HIV; assay: Level of CTL immune response elicited by peptide immunogen

**Q.** How did the “contribution to total HIV-1-specific CD8 responses” value [1] turn out when “GPGHKARVL (Human immunodeficiency virus type 1)” was run?
**A.** Its value is 32%.

**Q.** And the “percentage of CD8+ T cells specific for the epitope, intracellular IFN-γ” value [1]?
**A.** The value was 5.6%.

**Q.** Which “Magnitude of peptide-specific CD8+ T cell responses against Vif overlapping peptides, IFN-γ ELISPOT” value (shortened to “Magnitude … IFN-γ ELISPOT”) ([2]; individual 6003) does the source give for “THPRVSSEVHIPLG (Human immunodeficiency virus type 1) [vif-10]” here?
**A.** Its value is 0 SFC/10^6 PMBC.

**Q.** And the “Magnitude … IFN-γ ELISPOT” value ([2]; individual 6007)?
**A.** Its value is 0 SFC/10^6 PMBC.

**Q.** And the “Magnitude … IFN-γ ELISPOT” value ([2]; individual 6009)?
**A.** Its value is 40 SFC/10^6 PMBC.

**Q.** And the “Magnitude … IFN-γ ELISPOT” value ([2]; individual AC-01)?
**A.** Its value is 0 SFC/10^6 PMBC.

**Q.** And the “Magnitude … IFN-γ ELISPOT” value ([2]; individual AC-04)?
**A.** The value was 0 SFC/10^6 PMBC.

**Q.** What about the “Magnitude … IFN-γ ELISPOT” value ([2]; individual AC-06) of the same substance?
**A.** Its value is 11800 SFC/10^6 PMBC.

**Q.** What about the “magnitude of CTL response by Elispot” value ([2]; individual AC-06, text) of the same substance?
**A.** The value was 1180 SFC/10^6 PBMC.

**Q.** And the “Magnitude … IFN-γ ELISPOT” value ([2]; individual AC-07)?
**A.** The value was 0 SFC/10^6 PMBC.

**Q.** And the “Magnitude … IFN-γ ELISPOT” value ([2]; individual AC-13)?
**A.** Its value is 0 SFC/10^6 PMBC.

**Q.** What about the “Magnitude … IFN-γ ELISPOT” value ([2]; individual AC-27) of the same substance?
**A.** The value was 0 SFC/10^6 PMBC.

**Q.** What about the “Magnitude … IFN-γ ELISPOT” value ([2]; individual AC-31) of the same substance?
**A.** Its value is 0 SFC/10^6 PMBC.

**Q.** And the “Magnitude … IFN-γ ELISPOT” value ([2]; individual AC-36)?
**A.** The value was 0 SFC/10^6 PMBC.

**Q.** And the “Magnitude … IFN-γ ELISPOT” value ([2]; individual AC-42)?
**A.** Its value is 0 SFC/10^6 PMBC.

**Q.** What about the “Magnitude … IFN-γ ELISPOT” value ([2]; individual AC-43) of the same substance?
**A.** The value was 0 SFC/10^6 PMBC.

**Q.** What about the “Magnitude … IFN-γ ELISPOT” value ([2]; individual AC-46) of the same substance?
**A.** Its value is 0 SFC/10^6 PMBC.

**Q.** What about the “Magnitude … IFN-γ ELISPOT” value ([2]; individual AC-59) of the same substance?
**A.** Its value is 840 SFC/10^6 PMBC.

**Q.** What about the “Magnitude … IFN-γ ELISPOT” value ([2]; individual AC-TZA) of the same substance?
**A.** Its value is 0 SFC/10^6 PMBC.

**Q.** And the “Magnitude … IFN-γ ELISPOT” value ([2]; individual CMW)?
**A.** The value was 0 SFC/10^6 PMBC.

**Q.** What about the “Magnitude … IFN-γ ELISPOT” value ([2]; individual JMV) of the same substance?
**A.** The value was 0 SFC/10^6 PMBC.

**Q.** And the “Magnitude … IFN-γ ELISPOT” value ([2]; individual JRH)?
**A.** The value was 0 SFC/10^6 PMBC.

**Q.** What about the “Magnitude … IFN-γ ELISPOT” value ([2]; individual TMH#4) of the same substance?
**A.** The value was 0 SFC/10^6 PMBC.

**Q.** With “FPRIWLHGL (Human immunodeficiency virus type 1)” as the substance, how does the “recognition (individuals with the corresponding HLA class I alleles that responded to the epitope)” value (“recognition” below) [2] read?
**A.** Its value is 2/2 and 4/8.

**Q.** And the “individuals expressing the HLA allele that targeted the epitope” value ([2]; AL9: HLA-A2, FL9: HLA-B7)?
**A.** The value was 4/8.

**Q.** “LADQLIHLHY (Human immunodeficiency virus type 1)” was tested. Which “recognition” value [2] did it give?
**A.** The value was 2/5.

**Q.** How did the “recognition” value [2] turn out when “REPHNEWTL (Human immunodeficiency virus type 1)” was run?
**A.** The value was 1/1.

**Q.** Which “recognition” value [2] does the source give for AVRHFPRIW here?
**A.** The value was 4/6.

**Q.** “vif-3: overlapping peptide (12-18mer) spanning the HIV-1 SF2 B clade Vif sequence (RIRTWKSLVK; Human immunodeficiency virus type 1)” was tested. Which “Magnitude … IFN-γ ELISPOT” value ([2]; individual 6003) did it give?
**A.** The value was 0 SFC/10^6 PMBC.

**Q.** What about the “Magnitude … IFN-γ ELISPOT” value ([2]; individual 6007) of the same substance?
**A.** Its value is 0 SFC/10^6 PMBC.

**Q.** And the “Magnitude … IFN-γ ELISPOT” value ([2]; individual 6009)?
**A.** Its value is 290 SFC/10^6 PMBC.

**Q.** And the “Magnitude … IFN-γ ELISPOT” value ([2]; individual AC-01)?
**A.** Its value is 0 SFC/10^6 PMBC.

**Q.** What about the “Magnitude … IFN-γ ELISPOT” value ([2]; individual AC-04) of the same substance?
**A.** Its value is 0 SFC/10^6 PMBC.

**Q.** What about the “Magnitude … IFN-γ ELISPOT” value ([2]; individual AC-06) of the same substance?
**A.** Its value is 680 SFC/10^6 PMBC.

**Q.** And the “Magnitude … IFN-γ ELISPOT” value ([2]; individual AC-07)?
**A.** Its value is 0 SFC/10^6 PMBC.

**Q.** What about the “Magnitude … IFN-γ ELISPOT” value ([2]; individual AC-13) of the same substance?
**A.** Its value is 0 SFC/10^6 PMBC.

**Q.** What about the “Magnitude … IFN-γ ELISPOT” value ([2]; individual AC-27) of the same substance?
**A.** The value was 0 SFC/10^6 PMBC.

**Q.** What about the “Magnitude … IFN-γ ELISPOT” value ([2]; individual AC-31) of the same substance?
**A.** Its value is 0 SFC/10^6 PMBC.

**Q.** What about the “Magnitude … IFN-γ ELISPOT” value ([2]; individual AC-36) of the same substance?
**A.** Its value is 0 SFC/10^6 PMBC.

**Q.** And the “Magnitude … IFN-γ ELISPOT” value ([2]; individual AC-42)?
**A.** Its value is 0 SFC/10^6 PMBC.

**Q.** What about the “Magnitude … IFN-γ ELISPOT” value ([2]; individual AC-43) of the same substance?
**A.** The value was 0 SFC/10^6 PMBC.

**Q.** What about the “Magnitude … IFN-γ ELISPOT” value ([2]; individual AC-46) of the same substance?
**A.** The value was 0 SFC/10^6 PMBC.

**Q.** And the “Magnitude … IFN-γ ELISPOT” value ([2]; individual AC-59)?
**A.** Its value is 0 SFC/10^6 PMBC.

**Q.** What about the “Magnitude … IFN-γ ELISPOT” value ([2]; individual AC-TZA) of the same substance?
**A.** The value was 0 SFC/10^6 PMBC.

**Q.** And the “Magnitude … IFN-γ ELISPOT” value ([2]; individual CMW)?
**A.** The value was 0 SFC/10^6 PMBC.

**Q.** And the “Magnitude … IFN-γ ELISPOT” value ([2]; individual JMV)?
**A.** The value was 0 SFC/10^6 PMBC.

**Q.** What about the “Magnitude … IFN-γ ELISPOT” value ([2]; individual JRH) of the same substance?
**A.** Its value is 430 SFC/10^6 PMBC.

**Q.** What about the “Magnitude … IFN-γ ELISPOT” value ([2]; individual TMH#4) of the same substance?
**A.** Its value is 0 SFC/10^6 PMBC.

**Q.** For “HPRVSSEVHI (Human immunodeficiency virus type 1)”, which “recognition” value [2] is on record?
**A.** Its value is 3/8.

**Q.** Which “recognition” value [2] does the source give for “ISKKAKGWF (Human immunodeficiency virus type 1)” here?
**A.** Its value is 2/6.

**Q.** How did the “recognition” value [2] turn out when “ALIRILQQL (Human immunodeficiency virus type 1)” was run?
**A.** The value was 8/24.

**Q.** And the “level of the immune response elicited, compared with SEQ ID NO:1” value [3]?
**A.** The value was “at least 1 log”.

**Q.** Which “recognition” value [2] does the source give for “RIRTWKSLVK (Human immunodeficiency virus type 1)” here?
**A.** Its value is 3/15.
